These results are taken from patent US20240124442A1, “TRICYCLIC-AMIDO-BICYCLIC PRMT5 INHIBITORS” (AMGEN INC., priority 2021, published 2024).

The subject of one test is HCT116 MTAP null cells. The experiment in a line: HCT116 MTAP null cell line proliferation / cell viability (CellTiter-Glo, 6 days). It counts as cell-based. Particulars: 144 h; HCT116 MTAP null cells, 6 days treatment, CellTiter-Glo cell viability; read-out: HCT-116 MTAP null IC50. A digest of the protocol: (§1)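 Isogenic HCT116 parent and MTAP-knockout cells in RPMI 1640 + 10% FBS, plated overnight, then exposed to compound for 6 days (37 °C, 5% CO2). Viability by CellTiter-Glo luminescence. Dilutions: 8–9 points from 1 or 10 μM (1:3), or 22 points from 10 or 50 μM (1:2); IC50 by 4-parameter or Hill −1 fit.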
In general terms: ATP-based viability assays read luminescence as a measure of living cells.

The next test has as its system HCT116 WT cells. As to the kind of experiment: HCT116 WT (parent) cell line proliferation / cell viability (CellTiter-Glo, 6 days). It counts as cell-based. Particulars: Homo sapiens, HCT-116, 144 h, 6 days treatment. A digest of the protocol: as §1

One may read the IC50 as the concentration that inhibits the measured activity by half. Turning to `Cc1n[nH]c2c1c(N)nc1cnc(C(=O)N(C)[C@@H]3COc4cc(C(F)(F)F)ccc43)cc12` [Example 264, 4-amino-N,3-dimethyl-N-((3S)-6-(trifluoromethyl)-2,3-dihydro-1-benzofuran-3-yl)-1H-pyrazolo[4,3-c][1,7]naph-thyridine-8-carboxamide], the IC50 in the test on HCT116 MTAP null cells was 70 nM; with HCT116 WT cells, 5110 nM.
Turning to `Cc1nn(C)c2c1c(N)nc1cnc(C(=O)N(C)[C@@H]3COc4cc(C(F)(F)F)ccc43)cc12` [Example 265, 4-amino-N,1,3-trimethyl-N-((3S)-6-(trifluoromethyl)-2,3-dihydro-1-benzofuran-3-yl)-1H-pyrazolo[4,3-c][1,7]-naphthyridine-8-carboxamide], the IC50 with HCT116 MTAP null cells was 151 nM; in the test with HCT116 WT cells, 3850 nM.
In the same order, the values of `Cc1nn(C)c2c1c(N)nc1cnc(C(=O)N(C)[C@@H]3COc4cc(S(F)(F)(F)(F)F)ccc43)cc12` [Example 266, 4-amino-N,1,3-trimethyl-N-((3S)-6-(pentafluoro-lambda~6~-sulfanyl)-2,3-dihydro-1-benzofuran-3-yl)-1H-pyrazolo[4,3-c][1,7]naph-thyridine-8-carboxamide] are 70 nM and 2660 nM.
The like results for `Cc1nn(C)c2c1c(N)nc1cc(F)c(C(=O)N(C)[C@@H]3COc4cc(C(F)(F)F)ccc43)cc12` [Example 267, 4-amino-7-fluoro-N,1,3-trimethyl-N-((3S)-6-(trifluoro-methyl)-2,3-dihydro-1-benzo-furan-3-yl)-1H-pyrazolo[4,3-c]quinoline-8-carboxamide] were, in that order, 36 nM and 1980 nM.
The like results for `Cc1nn(C)c2c1c(N)nc1cc(F)c(C(=O)N(C)[C@@H]3COc4cc(-c5cnn(C(F)(F)F)c5)ccc43)cc12` [Example 268] were, in that order, 47 nM and 8560 nM.
`COc1ccc2c(c1)COC[C@H]2N(C)C(=O)c1cc2c3c(c(N)nc2cn1)[C@@H](C)OC3` [Example 269, (3R)-4-amino-N-((4S)-7-methoxy-3,4-dihydro-1H-2-benzopyran-4-yl)-N,3-dimeth-yl-1,3-dihydrofuro[3,4-c][1,7]-naphthyridine-8-carboxamide]: the IC50 in the test with HCT116 MTAP null cells was 39 nM; in the test with HCT116 WT cells it was 2930 nM.
With `C[C@H]1OCc2c1c(N)nc1cnc(C(=O)N(C)[C@@H]3COCc4nc(C(F)(F)F)ccc43)cc21` [Example 270, (3R)-4-amino-N,3-dimethyl-N-((5S)-2-(trifluoromethyl)-5,8-dihydro-6H-pyrano[3,4-b]-pyridin-5-yl)-1,3-dihydrofuro-[3,4-c][1,7]naphthyridine-8-carboxamide], the figures for the IC50 with HCT116 MTAP null cells and in the test with HCT116 WT cells were 17 nM and 740 nM, respectively.
The like results for `C[C@@H]1OCc2c1c(N)nc1cnc(C(=O)N(C)[C@@H]3COCc4nc(C(F)(F)F)ccc43)cc21` [Example 271, (3S)-4-amino-N,3-dimethyl-N-((5S)-2-(trifluoromethyl)-5,8-dihydro-6H-pyrano[3,4-b]-pyridin-5-yl)-1,3-dihydrofuro-[3,4-c][1,7]naphthyridine-8-carboxamide] were, in that order, 956 nM and 31400 nM.
In the same order, the values of `CN(C(=O)c1cc2c3c(c(N)nc2cc1Cl)COC3)[C@@H]1COCc2nc(C(F)(F)F)ccc21` [Example 274, 4-amino-7-chloro-N-methyl-N-((5S)-2-(trifluoromethyl)-5,8-dihydro-6H-pyrano[3,4-b]-pyridin-5-yl)-1,3-dihydrofuro-[3,4-c]quinoline-8-carboxamide] are 4 nM and 229 nM.
On to `CN(C(=O)c1cc2c3c(c(N)nc2nc1Cl)COC3)[C@@H]1COCc2cc(C#N)ccc21` [Example 275, 4-amino-7-chloro-N-((4S)-7-cyano-3,4-dihydro-1H-2-benzopyran-4-yl)-N-methyl-1,3-dihydrofuro[3,4-c][1,8]-naphthyridine-8-carboxamide], for which the results for the IC50 in the test on HCT116 MTAP null cells and with HCT116 WT cells were 83 nM and 2670 nM, respectively.
With `CN(C(=O)c1cc2c3c(c(N)nc2nc1Cl)COC3)[C@@H]1COCc2cc(C(F)(F)F)ccc21` [Example 276, 4-amino-7-chloro-N-methyl-N-((4S)-7-(trifluoromethyl)-3,4-dihydro-1H-2-benzopyran-4-yl)-1,3-dihydrofuro[3,4-c][1,8]-naphthyridine-8-carboxamide], the IC50 with HCT116 MTAP null cells was 16 nM; in the test with HCT116 WT cells it was 417 nM.
The like results for `Cc1cc2nc(N)c3c(c2cc1C(=O)N(C)[C@@H]1COCc2nc(C(F)(F)F)ccc21)COC3` [Example 277, 4-amino-N,7-dimethyl-N-((5S)-2-(trifluoromethyl)-5,8-dihydro-6H-pyrano[3,4-b]pyridin-5-yl)-1,3-dihydrofuro[3,4-c]quin-oline-8-carboxamide] were, in that order, 5 nM and 202 nM.
For the compound `CN(C(=O)c1cc2c3c(c(N)nc2cc1C(F)(F)F)COC3)[C@@H]1COCc2nc(C(F)(F)F)ccc21` [Example 278, 4-amino-N-methyl-7-(trifluoro-methyl)-N-((5S)-2-(trifluoro-methyl)-5,8-dihydro-6H-pyrano[3,4-b]pyridin-5-yl)-1,3-dihydrofuro[3,4-c]quinoline-8-carboxamide], the IC50 in the test on HCT116 MTAP null cells is 56 nM; in the test with HCT116 WT cells, 4290 nM.
The like results for `CN(C(=O)c1ccc2nc(N)c3ccncc3c2c1)[C@@H]1COCc2nc(C(F)(F)F)ccc21` [Example 279, 5-amino-N-methyl-N-((5S)-2-(trifluoromethyl)-5,8-dihydro-6H-pyrano[3,4-b]pyridin-5-yl)benzo[c][2,6]naphthyridine-9-carboxamide] were, in that order, 17 nM and 706 nM.
The like results for `CN(C(=O)c1ccc2nc(N)c3ncncc3c2c1)[C@@H]1COCc2nc(C(F)(F)F)ccc21` [Example 280, 5-amino-N-methyl-N-((5S)-2-(trifluoromethyl)-5,8-dihydro-6H-pyrano[3,4-b]pyridin-5-yl)pyrimido[4,5-c]quinoline-9-carboxamide] were, in that order, 461 nM and 5050 nM.
The like results for `CN(C(=O)c1cc2c(cn1)nc(N)c1ccncc12)[C@@H]1COCc2nc(C(F)(F)F)ccc21` [Example 281, 5-amino-N-methyl-N-((5S)-2-(trifluoromethyl)-5,8-dihydro-6H-pyrano[3,4-b]pyridin-5-yl)pyrido[4,3-c][1,7]naph-thyridine-9-carboxamide] were, in that order, 23 nM and 611 nM.
With `CN(C(=O)c1cc2c(cn1)nc(N)c1ncncc12)[C@@H]1COCc2nc(C(F)(F)F)ccc21` [Example 282, 5-amino-N-methyl-N-((5S)-2-(trifluoromethyl)-5,8-dihydro-6H-pyrano[3,4-b]pyridin-5-yl)-pyrimido[4,5-c][1,7]naphthyr-idine-9-carboxamide], the IC50 is 475 nM with HCT116 MTAP null cells and 5970 nM in the test with HCT116 WT cells.
Turning to `COc1ccc2c(n1)COC[C@H]2N(C)C(=O)c1ccc2nc(N)c3cnn(C)c3c2c1` [Example 283, 4-amino-N-((5S)-2-methoxy-5,8-dihydro-6H-pyrano[3,4-b]-pyridin-5-yl)-N,1-dimethyl-1H-pyrazolo[4,3-c]quinoline-8-carboxamide], the IC50 in the test on HCT116 MTAP null cells was 21 nM; in the test on HCT116 WT cells, 1360 nM.
The like results for `COc1ccc2c(n1)COC[C@@H]2N(C)C(=O)c1ccc2nc(N)c3cnn(C)c3c2c1` [Example 284, 4-amino-N-((5R)-2-methoxy-5,8-dihydro-6H-pyrano[3,4-b]-pyridin-5-yl)-N,1-dimethyl-1H-pyrazolo[4,3-c]quinoline-8-carboxamide] were, in that order, 674 nM and 15600 nM.
